Results reported in ChEMBL document CHEMBL4828727, “Antibacterial and antitumoral properties of 1,2,3-triazolo fused triterpenes and their mechanism of inhibiting the proliferation of HL-60 cells” (Eur J Med Chem, 2021).
pIC50: −log10 of the molar value. Converted amounts (≈) assume the structure as drawn. The source made the active and inactive calls. No cut-off for these calls is given here.

Tests used:
[1] = tested on: Salmonella enterica subsp. enterica; assay: Antibacterial activity against Salmonella enterica subsp.enterica ATCC13076 assessed as growth inhibition after 20 hrs by broth microdilution method; format: functional
[2] = Antiproliferative activity against human HAP1 cells assessed as inhibition of cell viability measured after 72 hrs by colorimetric MTS viability assay; format: functional, cell-based; details: HAP1, 72 h
Z-138 = assay: cells; format: functional, cell-based; details: Homo sapiens, Z-138, 72 h
Description: Antiproliferative activity against human Z138 cells assessed as inhibition of cell viability measured after 72 hrs by real-time IncuCyte proliferation analysis

Escherichia coli = assay: Antibacterial activity against Escherichia coli ATCC47076 assessed as growth inhibition after 20 hrs by broth microdilution method; format: functional
[3] = Antiproliferative activity against human DND41 cells assessed as inhibition of cell viability measured after 72 hrs by real-time IncuCyte proliferation analysis; format: functional, cell-based; details: DND41, 72 h
NCI-H460 = assay: cells; format: functional, cell-based; details: Homo sapiens, NCI-H460, 72 h
Description: Antiproliferative activity against human NCI-H460 cells assessed as inhibition of cell viability measured after 72 hrs by colorimetric MTS viability assay

LN-229 = assay: Antiproliferative activity against human LN-229 cells assessed as inhibition of cell viability measured after 72 hrs by colorimetric MTS viability assay; format: functional, cell-based; details: LN-229, 72 h
HL-60 = assay: cells; format: functional, cell-based; details: Homo sapiens, HL-60, 72 h
Description: Antiproliferative activity against human HL-60 cells assessed as inhibition of cell viability measured after 72 hrs by real-time IncuCyte proliferation analysis

Listeria innocua = assay: Antibacterial activity against Listeria innocua LMG11387 assessed as growth inhibition after 20 hrs by broth microdilution method; format: functional
CAPAN-1 = assay: cells; format: functional, cell-based; details: Homo sapiens, CAPAN-1, 72 h
Description: Antiproliferative activity against human CAPAN-1 cells assessed as inhibition of cell viability measured after 72 hrs by colorimetric MTS viability assay

Staphylococcus aureus = assay: Antibacterial activity against Staphylococcus aureus ATCC65385 assessed as growth inhibition after 20 hrs by broth microdilution method; format: functional
K562 = assay: cells; format: functional, cell-based; details: Homo sapiens, K562, 72 h
Description: Antiproliferative activity against human K562 cells assessed as inhibition of cell viability measured after 72 hrs by real-time IncuCyte proliferation analysis

HCT-116 = assay: Antiproliferative activity against human HCT-116 cells assessed as inhibition of cell viability measured after 72 hrs by colorimetric MTS viability assay; format: functional, cell-based; details: HCT-116, 72 h
MV4-11 = assay: cells; format: functional, cell-based; details: Homo sapiens, MV4-11, 72 h
Description: Cytotoxicity against human MV4-11cells assessed as inhibition of cell viability measured after 72 hrs by real-time IncuCyte proliferation analysis

Rec1 = assay: cells; format: functional, cell-based; details: Homo sapiens, Rec1, 72 h
Description: Cytotoxicity against human REC1 cells assessed as inhibition of cell viability measured after 72 hrs by real-time IncuCyte proliferation analysis

Jurkat = assay: cells; format: functional, cell-based; details: Homo sapiens, 72 h
Description: Cytotoxicity against human Jurkat cells assessed as inhibition of cell viability measured after 72 hrs by real-time IncuCyte proliferation analysis

Row | SMILES | MIC50 [1] | pIC50 [2] | pIC50 (Z-138) | MIC50 (Escherichia coli) | pIC50 [3] | pIC50 (NCI-H460) | pIC50 (LN-229) | pIC50 (HL-60) | MIC50 (Listeria innocua) | pIC50 (CAPAN-1) | MIC50 (Staphylococcus aureus) | pIC50 (K562) | pIC50 (HCT-116) | pIC50 (MV4-11) | pIC50 (Rec1) | pIC50 (Jurkat)
1 | CC1(C)CC[C@]2(C(=O)O)CC[C@]3(C)C(=CC[C@@H]4[C@@]5(C)Cc6nnn(Cc7ccc(Cl)cc7)c6C(C)(C)[C@@H]5CC[C@]43C)[C@@H]2C1 | 25.2 µg/mL (≈ 41.8 µM) | < 4.00 | 4.21 | 34.3 µg/mL (≈ 56.7 µM) | 4.19 | < 4.00 | 4.17 | 4.25 | 367 µg/mL (≈ 608 µM) | 4.59 | 180 µg/mL (≈ 298 µM) | < 4.00 | 4.20 |  |  | 
2 | CC1(C)CC[C@]2(C(=O)O)CC[C@]3(C)C(=CC[C@@H]4[C@@]5(C)Cc6nnn(Cc7cccc8[nH]ccc78)c6C(C)(C)[C@@H]5CC[C@]43C)[C@@H]2C1 | 88.7 µg/mL (≈ 146 µM) | 5.01 | 5.00 | 95.8 µg/mL (≈ 157 µM) | 4.96 | 4.97 | 4.33 | 5.01 | 237 µg/mL (≈ 390 µM) | 5.17 | 180 µg/mL (≈ 296 µM) | 4.17 | 4.90 | 4.66 | 5.59 | 5.28
3 | C=C(C)[C@@H]1CC[C@]2(CO)CC[C@]3(C)[C@H](CC[C@@H]4[C@@]5(C)Cc6nnn(Cc7ccc(F)cc7)c6C(C)(C)[C@@H]5CC[C@]43C)[C@@H]12 | 48.1 µg/mL (≈ 83.8 µM) | 4.99 | < 4.00 | 56.7 µg/mL (≈ 98.8 µM) | < 4.00 | < 4.00 | < 4.00 | < 4.00 | inactive | < 4.00 | inactive | < 4.00 | < 4.00 |  |  | 
4 | C=C(C)[C@@H]1CC[C@]2(CO)CC[C@]3(C)[C@H](CC[C@@H]4[C@@]5(C)Cc6nnn(CCc7c[nH]c8ccccc78)c6C(C)(C)[C@@H]5CC[C@]43C)[C@@H]12 | 16.6 µg/mL (≈ 27.3 µM) | < 4.00 | < 4.00 | > 20.9 µg/mL | < 4.00 | < 4.00 | < 4.00 | < 4.00 | inactive | < 4.00 | inactive | < 4.00 | < 4.00 |  |  | 
5 | O=C(O)c1cn(C2CC2)c2cc(N3CCNCC3)c(F)cc2c1=O [CIPROFLOXACIN] | 0.37 µg/mL (≈ 1.12 µM) |  |  |  |  |  |  |  | 138 µg/mL (≈ 416 µM) |  | 3.41 µg/mL (≈ 10.3 µM) |  |  |  |  | 
6 | C=C(C)[C@@H]1CC[C@]2(CO)CC[C@]3(C)[C@H](CC[C@@H]4[C@@]5(C)Cc6nnn(Cc7ccc8[nH]ccc8c7)c6C(C)(C)[C@@H]5CC[C@]43C)[C@@H]12 | 62 µg/mL (≈ 104 µM) | < 4.00 | < 4.00 | 96.3 µg/mL (≈ 162 µM) | < 4.00 | < 4.00 | < 4.00 | < 4.00 | 187 µg/mL (≈ 315 µM) | < 4.00 | 345 µg/mL (≈ 580 µM) | < 4.00 | < 4.00 |  |  | 
7 | C=C(C)[C@@H]1CC[C@]2(CO)CC[C@]3(C)[C@H](CC[C@@H]4[C@@]5(C)CC[C@H](O)C(C)(C)[C@@H]5CC[C@]43C)[C@@H]12 [BETULIN] | inactive | < 4.00 | < 4.00 | inactive | < 4.00 | < 4.00 | < 4.00 | < 4.00 | 398 µg/mL (≈ 899 µM) | < 4.00 | 248 µg/mL (≈ 559 µM) | < 4.00 | < 4.00 |  |  | 
8 | C=C(C)[C@@H]1CC[C@]2(CO)CC[C@]3(C)[C@H](CC[C@@H]4[C@@]5(C)Cc6nnn(CCc7c[nH]c8ccc(OC)cc78)c6C(C)(C)[C@@H]5CC[C@]43C)[C@@H]12 | 17.3 µg/mL (≈ 27 µM) | < 4.00 | < 4.00 | 17.7 µg/mL (≈ 27.7 µM) | < 4.00 | < 4.00 | < 4.00 | < 4.00 | 429 µg/mL (≈ 672 µM) | < 4.00 | inactive | < 4.00 | < 4.00 |  |  | 
9 | C=C(C)[C@@H]1CC[C@]2(CO)CC[C@]3(C)[C@H](CC[C@@H]4[C@@]5(C)Cc6nnn(Cc7ccc8cc[nH]c8c7)c6C(C)(C)[C@@H]5CC[C@]43C)[C@@H]12 | 43 µg/mL (≈ 72.3 µM) | < 4.00 | < 4.00 | 84.7 µg/mL (≈ 142 µM) | < 4.00 | < 4.00 | < 4.00 | < 4.00 | 195 µg/mL (≈ 328 µM) | < 4.00 | 233 µg/mL (≈ 392 µM) | < 4.00 | < 4.00 |  |  | 
10 | CC1(C)CC[C@]2(C(=O)O)CC[C@]3(C)C(=CC[C@@H]4[C@@]5(C)CC[C@H](O)C(C)(C)[C@@H]5CC[C@]43C)[C@@H]2C1 [OLEANOLIC_ACID] | inactive | < 4.00 | < 4.00 | 392 µg/mL (≈ 859 µM) | 4.18 | < 4.00 | < 4.00 | 4.44 | 21.4 µg/mL (≈ 46.7 µM) | 4.30 | 1.16 µg/mL (≈ 2.54 µM) | < 4.00 | 4.49 |  |  | 
11 | C=C(C)[C@@H]1CC[C@]2(CO)CC[C@]3(C)[C@H](CC[C@@H]4[C@@]5(C)Cc6nnn(Cc7cccc8[nH]ccc78)c6C(C)(C)[C@@H]5CC[C@]43C)[C@@H]12 | 55.5 µg/mL (≈ 93.3 µM) | < 4.00 | < 4.00 | 99.8 µg/mL (≈ 168 µM) | < 4.00 | < 4.00 | < 4.00 | < 4.00 | 379 µg/mL (≈ 636 µM) | < 4.00 | inactive | < 4.00 | < 4.00 |  |  | 
12 | CN[C@@H]1C[C@H]2O[C@@](C)([C@@H]1OC)n1c3ccccc3c3c4c(c5c6ccccc6n2c5c31)C(=O)NC4 [STAUROSPORINE] |  | 7.31 |  |  | 7.51 |  | 8.01 |  |  |  |  |  | 7.32 |  |  | 
13 | C[C@H]1[C@H](C)CC[C@]2(C(=O)O)CC[C@]3(C)C(=CC[C@@H]4[C@@]5(C)CC[C@H](O)C(C)(C)[C@@H]5CC[C@]43C)[C@H]12 [URSOLIC ACID] | inactive | 4.15 | 5.01 | inactive | 4.86 | 4.79 | 4.32 | 5.02 | 27 µg/mL (≈ 59.2 µM) | 5.07 | 1.56 µg/mL (≈ 3.42 µM) | 4.99 | 4.75 |  |  | 
14 | C=C(C)[C@@H]1CC[C@]2(CO)CC[C@]3(C)[C@H](CC[C@@H]4[C@@]5(C)Cc6nnn(Cc7ccc(OC)cc7)c6C(C)(C)[C@@H]5CC[C@]43C)[C@@H]12 | 32.3 µg/mL (≈ 55.1 µM) | < 4.00 | < 4.00 | 70.6 µg/mL (≈ 121 µM) | < 4.00 | < 4.00 | < 4.00 | < 4.00 | inactive | < 4.00 | inactive | < 4.00 | < 4.00 |  |  | 
